Assay results published in patent US20100081719A1 (priority 2006, published 2010).
Values joined by “and” are separate entries in the source; they are usually repeats but may differ in a detail not shown here. Equal values may be shown once. “Also recorded” adds a separate entry of the source. Where a name gives a salt, the structure may show the parent alone.

Test system: patients who met the 1990 ACR criteria for fibromyalgia syndrome
Test: Multi-center double-blind, randomized, placebo-controlled study of milnacipran for the treatment of fibromyalgia (Example 1)
Type: in vivo, human
Conditions: for Responders for the treatment of the pain of fibromyalgia (% = m/n): observed cases (OC), intent-to-treat
Experimental: The primary outcome was a composite responder analysis assessing response rate at weeks 14 and 15, and the secondary analysis assessed response rate at weeks 26 and 27.
This was a multi-center, randomized, double-blinded, placebo-controlled three-arm study, which enrolled 888 patients who met the 1990 ACR criteria for fibromyalgia syndrome as well as the more detailed admission criteria outlined in the protocol.
Patients recorded baseline symptoms for the first two weeks after washing off anti-depressants, benzodiazepines, and certain other drugs that could potentially interfere with efficacy measurements.
All randomized medications (placebo and milnacipran) were administered in a split-dose (BID) fashion. The doses were administered in a dose escalation regimen as outlined below:
d. FMS Status Assessments: Patient pain 24 hour and 7 day recall VAS, the SF-36, Multiple Ability Self-report Questionnaire (MASQ, cognitive function), the Multidimensional Health Assessment Questionnaire (MDHAQ) and the Multidimensional Fatigue Inventory (MFI). Diary assessments include current pain (morning, random daily, and evening reports); daily recall pain (morning report); medications taken (evening report); overall pain past week (weekly report), overall fatigue in the last week (weekly report), and the extent that pain kept the patient from caring for themselves (weekly report).
The SF-36 is a multi-purpose, short-form health survey. It yields an 8-scale profile of functional health and well-being scores, psychometrically-based physical and mental health summary measures, and a preference-based health utility index (Ware J E, Snow K K, Kosinski M, Gandek B. SF-36® Health Survey Manual and Interpretation Guide. Boston, Mass.: New England Medical Center, The Health Institute, 1993). […] The SF-36 has proven useful in surveys of general and specific populations, comparing the relative burden of diseases, and in differentiating the health benefits produced by a wide range of different treatments.
The primary endpoint of this study was a composite responder analysis implementing analysis of three domains of interest, evaluated at […]. The domains measured were:
For the primary analysis, the pain domain score was determined by a calculation that compared the average of treatment weeks 14 and 15 to the two baseline weeks, and treatment weeks 26 and 27 vs. baseline for the secondary analysis. The last observation was carried forward if neither the week 14 nor week 15 (or week 26/27) patient self-reported pain score is available to compare to the baseline value.
A responder was defined as a subject who experienced a greater than 30% reduction in pain from baseline and improvement on the PGIC.
See Table 1 for a summary of the results in the Intent-to-Treat Population and Table 2 for a summary of the Last Observation Carried Forward (LOCF), Baseline Observation Carried Forward (BOCF) and study completer (OC) populations. LOCF is an analysis in which observations are carried forward to the last time point for patients who dropped out. The LOCF analysis treats the carried-forward data as observed data at the last time point. BOCF is an analysis that requires the patient remain active in the trial to be evaluated for response. If a patient withdraws from the trial for any reason they are classed as a non-responder irregardless of their pain and global scores at the time of withdrawal.

## CCN(CC)C(=O)C1(c2ccccc2)CC1CN (racemic) [milnacipran, Z-2-aminomethyl-1-phenyl-N, N-diethylcyclopropanecarboxamide hydrochloride]
100 mg/day vs placebo
  Treatment of fatigue associated with FMS (MFI total score / MFI physical fatigue), comparison with placebo: superior to placebo
100 mg/day, treatment week 3
  SF-36 Physical Function: 6.31
100 mg/day, treatment week 7
  SF-36 Physical Function: 6.62
100 mg/day, treatment week 11
  SF-36 Physical Function: 7.70
100 mg/day, treatment week 15
  SF-36 Physical Function: 7.70
100 mg/day, treatment week 19
  SF-36 Physical Function: 7.71
100 mg/day, treatment week 23
  SF-36 Physical Function: 7.07
100 mg/day, treatment week 27
  SF-36 Physical Function: 7.11
100 mg/day, treatment weeks 14-15 (3 month), hydrochloride
  Responders for the treatment of the pain of fibromyalgia (% = m/n): 53.33% and 53.3%
100 mg/day, treatment weeks 14-15 (3 month), listed as Milnacipran, hydrochloride
  Responders for the treatment of the pain of fibromyalgia (% = m/n): 72 (53.33) %
100 mg/day, treatment weeks 26-27 (6 month), hydrochloride
  Responders for the treatment of the pain of fibromyalgia (% = m/n): 49.59% and 49.6%
100 mg/day, treatment weeks 26-27 (6 month), listed as Milnacipran, hydrochloride
  Responders for the treatment of the pain of fibromyalgia (% = m/n): 60 (49.59) %
100 mg, 3 month
  Individual component responder rate, PGIC (LOCF): 54.0%
  Individual component responder rate, Pain (LOCF): 35.7%
  Pain composite responder rate, Primary Analysis (LOCF): 33.5%
  Pain composite responder rate, Sensitivity Analysis I (BOCF): 32.1%
  Pain composite responder rate, Sensitivity Analysis II: 32.%
  Pain composite responder rate, Sensitivity Analysis III: 32.1%
100 mg, 6 month
  Individual component responder rate, PGIC (LOCF): 49.6%
  Individual component responder rate, Pain (LOCF): 35.7%
  Pain composite responder rate, Primary Analysis (LOCF): 30.8%
  Pain composite responder rate, Sensitivity Analysis I (BOCF): 26.8%
  Pain composite responder rate, Sensitivity Analysis II: 27.2%
  Pain composite responder rate, Sensitivity Analysis III: 29.5%
100 mg, treatment week 3
  MFI (change from baseline) Physical fatigue (range 4 to 20): −0.99
  MFI (change from baseline) Total score (range 20 to 100): −3.68
100 mg, treatment week 7
  MFI (change from baseline) Physical fatigue (range 4 to 20): −1.23
  MFI (change from baseline) Total score (range 20 to 100): −4.32
100 mg, treatment week 11
  MFI (change from baseline) Physical fatigue (range 4 to 20): −1.46
  MFI (change from baseline) Total score (range 20 to 100): −5.16
100 mg, treatment week 15
  MFI (change from baseline) Physical fatigue (range 4 to 20): −1.29
  MFI (change from baseline) Total score (range 20 to 100): −5.15
100 mg, treatment week 19
  MFI (change from baseline) Physical fatigue (range 4 to 20): −1.34
  MFI (change from baseline) Total score (range 20 to 100): −4.97
100 mg, treatment week 23
  MFI (change from baseline) Physical fatigue (range 4 to 20): −1.23
  MFI (change from baseline) Total score (range 20 to 100): −4.44
100 mg, treatment week 27
  MFI (change from baseline) Physical fatigue (range 4 to 20): −1.37
  MFI (change from baseline) Total score (range 20 to 100): −5.00
200 mg/day (high dose) vs 100 mg/day, hydrochloride
  Treatment of fatigue associated with FMS (MFI), comparison of doses: superior to milnacipran 100 mg/day; also recorded: significantly more effective treatment
200 mg/day vs placebo
  Treatment of fatigue associated with FMS (MFI total score / MFI physical fatigue), comparison with placebo: superior to placebo
200 mg/day, treatment week 3
  SF-36 Physical Function: 7.44
200 mg/day, treatment week 7
  SF-36 Physical Function: 8.80
200 mg/day, treatment week 11
  SF-36 Physical Function: 8.46
200 mg/day, treatment week 15
  SF-36 Physical Function: 8.44
200 mg/day, treatment week 19
  SF-36 Physical Function: 8.37
200 mg/day, treatment week 23
  SF-36 Physical Function: 7.85
200 mg/day, treatment week 27
  SF-36 Physical Function: 7.95
200 mg/day, treatment weeks 14-15 (3 month), hydrochloride
  Responders for the treatment of the pain of fibromyalgia (% = m/n): 55.0%
200 mg/day, treatment weeks 14-15 (3 month), listed as Milnacipran, hydrochloride
  Responders for the treatment of the pain of fibromyalgia (% = m/n): 143 (55.00) %
200 mg/day, treatment weeks 26-27 (6 month), hydrochloride
  Responders for the treatment of the pain of fibromyalgia (% = m/n): 51.74% and 51.7%
200 mg/day, treatment weeks 26-27 (6 month), listed as Milnacipran, hydrochloride
  Responders for the treatment of the pain of fibromyalgia (% = m/n): 119 (51.74) %
200 mg, 3 month
  Individual component responder rate, PGIC (LOCF): 50.6%
  Individual component responder rate, Pain (LOCF): 38.3%
  Pain composite responder rate, Primary Analysis (LOCF): 34.9%
  Pain composite responder rate, Sensitivity Analysis I (BOCF): 32.4%
  Pain composite responder rate, Sensitivity Analysis II: 32.7%
  Pain composite responder rate, Sensitivity Analysis III: 32.4%
200 mg, 6 month
  Individual component responder rate, PGIC (LOCF): 49.9%
  Individual component responder rate, Pain (LOCF): 35.4%
  Pain composite responder rate, Primary Analysis (LOCF): 32.2%
  Pain composite responder rate, Sensitivity Analysis I (BOCF): 27.0%
  Pain composite responder rate, Sensitivity Analysis II: 28.6%
  Pain composite responder rate, Sensitivity Analysis III: 29.9%
200 mg, treatment week 3
  MFI (change from baseline) Physical fatigue (range 4 to 20): −1.20
  MFI (change from baseline) Total score (range 20 to 100): −4.58
200 mg, treatment week 7
  MFI (change from baseline) Physical fatigue (range 4 to 20): −1.56
  MFI (change from baseline) Total score (range 20 to 100): −5.92
200 mg, treatment week 11
  MFI (change from baseline) Physical fatigue (range 4 to 20): −1.54
  MFI (change from baseline) Total score (range 20 to 100): −5.67
200 mg, treatment week 15
  MFI (change from baseline) Physical fatigue (range 4 to 20): −1.50
  MFI (change from baseline) Total score (range 20 to 100): −5.62
200 mg, treatment week 19
  MFI (change from baseline) Physical fatigue (range 4 to 20): −1.54
  MFI (change from baseline) Total score (range 20 to 100): −5.67
200 mg, treatment week 23
  MFI (change from baseline) Physical fatigue (range 4 to 20): −1.44
  MFI (change from baseline) Total score (range 20 to 100): −4.94
200 mg, treatment week 27
  MFI (change from baseline) Physical fatigue (range 4 to 20): −1.49
  MFI (change from baseline) Total score (range 20 to 100): −5.80
Continued administration (daily for at least three months)
  Relief from fibromyalgia and its symptoms: long-term (at least three months) relief
Low dose (100 mg/day) vs high dose (200 mg/day), continued administration
  Long-term treatment of fibromyalgia and some of its symptoms, comparison of doses: almost as effective as
